Measurements reported in patent publication US12303497B2, “Anti-androgens for the treatment of metastatic castration-sensitive prostate cancer” (priority 2019, dated 2025).

How the values were obtained:
[1] = Leuprolide PK sub-study in mCSPC subjects receiving leuprolide acetate; format: in vivo, human
Text: Optional PK samples were/will be collected from at least 60 consenting subjects (in selected countries) who received or will receive leuprolide acetate as the GnRHa at the time of randomization. Samples were/will be collected on Day 1 of Cycles 1, 3, 4, 5, and 6 for analysis of leuprolide and testosterone concentrations.
Descriptive statistics of leuprolide PK data will be summarized by treatment groups (with apalutamide or placebo) and dose of leuprolide acetate. […] The percentage of subjects with testosterone levels <50 ng/dL will be summarized descriptively by treatment groups.

CYP2C8 [2] = target: T1, CYP2C8 (Homo sapiens, UniProt P10632); test: Co-administration with gemfibrozil (strong CYP2C8 inhibitor); format: in vivo; design: endogenous in cells; host or cells: human subjects, in vivo; conditions: ERLEADA 240 mg single dose with gemfibrozil
T1 sequence (P10632 1-490): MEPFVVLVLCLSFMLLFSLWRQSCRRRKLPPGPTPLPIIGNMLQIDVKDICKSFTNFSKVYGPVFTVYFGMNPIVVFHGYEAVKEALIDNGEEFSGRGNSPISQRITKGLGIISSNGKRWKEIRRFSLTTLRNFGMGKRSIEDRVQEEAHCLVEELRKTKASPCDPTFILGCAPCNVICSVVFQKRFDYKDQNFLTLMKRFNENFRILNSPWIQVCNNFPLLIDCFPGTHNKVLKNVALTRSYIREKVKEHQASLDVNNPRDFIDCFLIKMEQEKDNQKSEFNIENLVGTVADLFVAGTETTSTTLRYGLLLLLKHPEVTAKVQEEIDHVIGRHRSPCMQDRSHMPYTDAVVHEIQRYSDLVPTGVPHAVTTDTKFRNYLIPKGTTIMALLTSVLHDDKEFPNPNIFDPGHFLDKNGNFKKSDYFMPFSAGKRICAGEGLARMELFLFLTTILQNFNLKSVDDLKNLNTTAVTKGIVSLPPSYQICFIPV

patients with CRPC = test: Dedicated QT study (QTc interval); format: in vivo, human
Text: The maximum mean QTcF change from baseline was 12.4 ms (2-sided 90% upper CI. 16.0 ms).

rat bone marrow = test: In vivo rat bone marrow micronucleus assay
OATP1B3 = OATP1B3 (Homo sapiens, UniProt Q9NPD5); test: In vitro transporter substrate study
Sequence of OATP1B3 (Q9NPD5 whole entry): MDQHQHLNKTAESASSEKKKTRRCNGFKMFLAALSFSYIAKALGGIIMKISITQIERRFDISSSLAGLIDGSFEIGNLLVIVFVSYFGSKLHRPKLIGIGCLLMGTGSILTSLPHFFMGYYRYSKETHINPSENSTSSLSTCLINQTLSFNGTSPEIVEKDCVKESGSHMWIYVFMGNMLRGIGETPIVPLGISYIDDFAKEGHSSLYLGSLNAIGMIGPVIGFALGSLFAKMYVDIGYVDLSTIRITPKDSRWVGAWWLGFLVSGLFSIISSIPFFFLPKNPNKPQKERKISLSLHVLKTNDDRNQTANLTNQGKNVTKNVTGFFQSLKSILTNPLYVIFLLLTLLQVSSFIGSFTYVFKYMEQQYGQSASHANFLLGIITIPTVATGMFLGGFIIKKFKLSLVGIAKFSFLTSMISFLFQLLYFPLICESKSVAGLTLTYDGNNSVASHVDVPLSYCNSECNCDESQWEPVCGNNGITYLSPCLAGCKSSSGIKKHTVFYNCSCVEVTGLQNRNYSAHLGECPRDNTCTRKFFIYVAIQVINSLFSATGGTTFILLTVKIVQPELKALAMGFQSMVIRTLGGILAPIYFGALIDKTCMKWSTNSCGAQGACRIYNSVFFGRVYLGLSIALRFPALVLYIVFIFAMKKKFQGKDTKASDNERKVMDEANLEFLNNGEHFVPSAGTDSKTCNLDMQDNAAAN

CYP2C8 [3] = target: T1, CYP2C8; test: Contribution of CYP2C8 in the metabolism of apalutamide; design: endogenous in cells; host or cells: human subjects, in vivo; conditions: estimated
Text: Metabolism is the main route of elimination of apalutamide.

dogs = test: Repeat-dose toxicity study in dogs (up to 39 weeks); format: in vivo, dog
CYP3A4 = CYP3A4 (Homo sapiens, UniProt P08684); test: In vitro CYP inhibition
Sequence of CYP3A4 (P08684 whole entry): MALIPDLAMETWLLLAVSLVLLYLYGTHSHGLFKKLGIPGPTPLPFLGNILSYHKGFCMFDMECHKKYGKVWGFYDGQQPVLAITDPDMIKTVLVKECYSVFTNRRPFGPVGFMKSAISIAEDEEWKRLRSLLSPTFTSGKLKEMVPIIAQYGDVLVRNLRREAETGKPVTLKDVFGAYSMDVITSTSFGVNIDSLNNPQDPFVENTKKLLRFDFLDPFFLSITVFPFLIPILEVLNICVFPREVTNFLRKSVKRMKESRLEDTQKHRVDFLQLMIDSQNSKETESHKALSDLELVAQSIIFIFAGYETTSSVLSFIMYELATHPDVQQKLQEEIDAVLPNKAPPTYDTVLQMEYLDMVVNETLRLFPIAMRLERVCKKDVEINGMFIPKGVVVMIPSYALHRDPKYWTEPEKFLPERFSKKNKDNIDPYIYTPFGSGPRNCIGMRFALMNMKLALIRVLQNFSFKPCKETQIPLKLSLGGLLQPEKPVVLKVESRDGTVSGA

CYP2C19 = CYP2C19 (Homo sapiens, UniProt P33261); test: In vitro CYP inhibition
Sequence of CYP2C19 (P33261 whole entry): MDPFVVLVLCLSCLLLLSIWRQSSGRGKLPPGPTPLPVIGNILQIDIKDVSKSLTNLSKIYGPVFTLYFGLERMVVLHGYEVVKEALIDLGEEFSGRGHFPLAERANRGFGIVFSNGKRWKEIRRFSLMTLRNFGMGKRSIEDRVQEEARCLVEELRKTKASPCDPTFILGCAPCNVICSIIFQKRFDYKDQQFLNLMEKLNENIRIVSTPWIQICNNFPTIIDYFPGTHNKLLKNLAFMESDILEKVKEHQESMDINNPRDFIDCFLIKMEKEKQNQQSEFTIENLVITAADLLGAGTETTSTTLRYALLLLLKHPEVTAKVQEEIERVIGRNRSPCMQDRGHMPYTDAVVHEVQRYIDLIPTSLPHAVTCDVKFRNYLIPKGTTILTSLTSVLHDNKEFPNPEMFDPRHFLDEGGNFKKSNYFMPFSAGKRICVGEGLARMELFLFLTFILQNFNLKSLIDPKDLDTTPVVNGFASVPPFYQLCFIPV

CYP2C9 = CYP2C9 (Homo sapiens, UniProt P11712); test: In vitro CYP inhibition
Sequence of CYP2C9 (P11712 whole entry): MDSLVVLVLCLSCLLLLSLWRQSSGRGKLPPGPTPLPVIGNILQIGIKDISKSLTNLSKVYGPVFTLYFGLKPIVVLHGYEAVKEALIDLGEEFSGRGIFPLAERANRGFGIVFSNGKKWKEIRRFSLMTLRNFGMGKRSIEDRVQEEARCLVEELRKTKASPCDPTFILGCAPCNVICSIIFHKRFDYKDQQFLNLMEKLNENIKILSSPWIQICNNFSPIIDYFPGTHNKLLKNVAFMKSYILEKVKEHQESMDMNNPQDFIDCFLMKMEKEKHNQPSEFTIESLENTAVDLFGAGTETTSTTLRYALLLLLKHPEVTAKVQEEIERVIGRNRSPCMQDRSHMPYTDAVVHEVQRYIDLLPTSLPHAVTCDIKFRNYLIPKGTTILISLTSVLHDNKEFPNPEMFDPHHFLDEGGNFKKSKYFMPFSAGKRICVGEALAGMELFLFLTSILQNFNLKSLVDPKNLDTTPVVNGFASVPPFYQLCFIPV

OATP1B1 = OATP1B1 (Homo sapiens, UniProt Q9Y6L6); test: In vitro transporter substrate study
Sequence of OATP1B1 (Q9Y6L6 whole entry): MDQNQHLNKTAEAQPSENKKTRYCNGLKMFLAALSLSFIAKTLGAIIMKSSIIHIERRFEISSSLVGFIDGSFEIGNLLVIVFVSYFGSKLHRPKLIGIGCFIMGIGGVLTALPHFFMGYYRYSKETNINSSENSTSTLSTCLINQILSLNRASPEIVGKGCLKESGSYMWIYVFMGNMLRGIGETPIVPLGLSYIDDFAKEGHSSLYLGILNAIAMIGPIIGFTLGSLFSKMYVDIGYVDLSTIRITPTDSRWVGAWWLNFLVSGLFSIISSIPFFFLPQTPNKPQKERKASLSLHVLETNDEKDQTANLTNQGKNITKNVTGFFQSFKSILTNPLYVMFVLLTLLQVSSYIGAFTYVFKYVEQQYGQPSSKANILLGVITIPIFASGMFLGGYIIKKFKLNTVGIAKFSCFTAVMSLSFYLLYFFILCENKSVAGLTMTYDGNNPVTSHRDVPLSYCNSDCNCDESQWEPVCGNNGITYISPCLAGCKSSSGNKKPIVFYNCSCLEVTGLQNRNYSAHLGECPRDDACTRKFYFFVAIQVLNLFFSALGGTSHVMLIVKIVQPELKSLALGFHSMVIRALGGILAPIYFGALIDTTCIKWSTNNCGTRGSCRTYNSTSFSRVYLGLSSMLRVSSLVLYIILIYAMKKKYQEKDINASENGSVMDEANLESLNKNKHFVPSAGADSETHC

[4] = target: organic anion transporter 3 (OAT3) (Homo sapiens, UniProt Q8TCC7); test: In vitro transporter inhibition
Sequence of organic anion transporter 3 (OAT3) (Q8TCC7 whole entry): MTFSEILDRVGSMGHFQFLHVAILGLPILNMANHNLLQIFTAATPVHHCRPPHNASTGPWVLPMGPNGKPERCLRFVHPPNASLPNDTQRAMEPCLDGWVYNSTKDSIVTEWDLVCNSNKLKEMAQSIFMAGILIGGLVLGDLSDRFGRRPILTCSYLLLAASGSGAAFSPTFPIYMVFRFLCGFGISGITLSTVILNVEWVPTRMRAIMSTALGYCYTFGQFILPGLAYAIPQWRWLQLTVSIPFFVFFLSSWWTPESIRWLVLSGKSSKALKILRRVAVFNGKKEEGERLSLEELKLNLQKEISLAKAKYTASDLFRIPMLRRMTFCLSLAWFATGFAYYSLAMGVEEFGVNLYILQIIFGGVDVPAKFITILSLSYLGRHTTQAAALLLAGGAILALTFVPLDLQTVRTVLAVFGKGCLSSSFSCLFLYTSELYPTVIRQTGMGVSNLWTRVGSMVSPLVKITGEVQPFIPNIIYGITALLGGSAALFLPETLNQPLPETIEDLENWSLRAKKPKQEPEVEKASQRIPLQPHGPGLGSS

[5] = Ionization under physiological pH; format: physicochemical; conditions: relevant physiological pH condition
BCRP/OATP1B1 = test: Co-administration of ERLEADA with rosuvastatin (BCRP/OATP1B1 substrate); conditions: in vivo
male rats = test: Fertility study in male rats; format: in vivo, rat
CYP2C8 [6] = target: T1, CYP2C8; test: In vitro CYP inhibition

SMILES: CNC(=O)c1ccc(N2C(=S)N(c3cnc(C#N)c(C(F)(F)F)c3)C(=O)C23CCC3)cc1F [Apalutamide, 4-[7-(6-cyano-5-trifluoromethylpyridin-3-yl)-8-oxo-6-thioxo-5,7-diazaspiro[3.4]oct-5-yl]-2-fluoro-N-methylbenzamide]
- Effect on the steady-state exposure of leuprolide [1]: no apparent effect
- Apalutamide AUC increase (CYP2C8 [2]): 68%
- Apalutamide Cmax decrease (CYP2C8 [2]): 21%
- Maximum mean QTcF change from baseline (patients with CRPC; apalutamide 240 mg once daily, 45 patients with CRPC, 2-sided 90% upper CI 16.0 ms): 12.4 ms
- Exposure-QT analysis (patients with CRPC; in vivo): concentration-dependent increase in QTcF
- Genotoxicity (rat bone marrow): not genotoxic
- Substrate for OATP1B3 (OATP1B3): not
- Contribution of CYP2C8 in the metabolism of apalutamide (CYP2C8 [3]; at steady-state): 40%
- Contribution of CYP2C8 in the metabolism of apalutamide (CYP2C8 [3]; following single dose): 58%
- Dose at which atrophy of prostate gland and seminal vesicles, aspermia/hypospermia, tubular degeneration and/or interstitial cell hyperplasia or hypertrophy were observed (dogs): ≥ 2.5 mg/kg/day
- CYP3A4 inhibition (CYP3A4): weak inhibitors
- CYP2C19 inhibition (CYP2C19): weak inhibitors
- CYP2C9 inhibition (CYP2C9): weak inhibitors
- Substrate for OATP1B1 (OATP1B1): not
- Inhibition of OAT3 [4]: inhibit
- Ionization [5]: not ionizable
- Induction of BCRP and OATP1B1, clinically (BCRP/OATP1B1): weak inducer
- Dose at which a reduced number of live fetuses due to increased pre- and/or post-implantation loss was observed (male rats; 4 weeks of administration): 150 mg/kg/day
- Dose at which decreased sperm concentration and motility, abnormal sperm morphology, lower copulation and fertility rates, reduced secondary sex gland and epididymis weights were observed (male rats; 4 weeks of dosing): ≥ 25 mg/kg/day
- Time after last administration at which effects on male rats were reversible (male rats; rat, in vivo): 8 weeks
- CYP2C8 inhibition (CYP2C8 [6]): moderate inhibitors
